One assay deals with HOS. Kind of assay: In vitro cytotoxic activity, Calcein AM assay, HOS. It counts as cell-based. To be noted: 72 hours.
For assay [1], the system named is human erythroleukaemia K562. Kind of assay: In vitro cytotoxic activity, Calcein AM assay, K-562. It counts as cell-based. To be noted: 72 hours, read-out: IC 50 K-562. Put shortly: (§1)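 Continuous 72 h drug exposure of cultured cells, followed by 1 h Calcein AM staining to count metabolically active cells; survival relative to untreated wells gave GI50.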
For assay [2], the system named is breast carcinoma cell lines MCF-7. Kind of assay: In vitro cytotoxic activity, Calcein AM assay, MCF7. Type of assay: cell-based, human. To be noted: 72 hours, read-out: IC 50 MCF7. Put shortly:
as §1

For the next assay, the system named is mouse fibroblasts NIH3T3. In words: In vitro cytotoxic activity, Calcein AM assay, NIH-3T3. As to conditions: 72 hours, read-out: IC 50 NIH-3T3. Type of assay: cell-based. Put shortly: as §1
The test system of assay [3] is human malignant melanoma cells G361. Kind of assay: In vitro cytotoxic activity, Calcein AM assay, G-361. It counts as cell-based. As to conditions: 72 hours, read-out: IC 50 G-361. An excerpt: One of the parameters used, as the basis for cytotoxicity assays, is the metabolic activity of viable cells. For example, a microtiter assay, which uses the Calcein AM, is now widely used to quantitate cell proliferation and cytotoxicity. For instance, this assay is used in drug screening programs and in chemosensitivity testing. Because only metabolically active cells cleave Calcein AM, these assays detect viable cells exclusively. The quantity of reduced Calcein AM corresponds to the number of vital cells in the culture.
Human T-lymphoblastic leukemia cell line CEM; promyelocytic HL-60 and monocytic U937 leukemias; breast carcinoma cell lines MCF-7; cervical carcinoma cells HELA; mouse fibroblasts NIH3T3; human erythroleukaemia K562 and human malignant melanoma cells G361 were used for routine screening of compounds. The cells were maintained in Nunc/Corning 80 cm^2 plastic tissue culture flasks and cultured in cell culture medium (DMEM with 5 g/l glucose, 2 mM glutamine, 100 U/ml penicillin, 100 μg/ml streptomycin, 10% fetal calf serum and sodium bicarbonate).
The cell suspensions that were prepared and diluted according to the particular cell type and the expected target cell density (10^4 cells per well based on cell growth characteristics) were added by pipette (80 μl) into 96/well microtiter plates. Inoculates were allowed a pre-incubation period of 24 hours at 37° C. and 5% CO2 for stabilisation. Four-fold dilutions of the intended test concentration were added at time zero in 20 μl aliquots to the microtiter plate wells. Usually, test compound was evaluated at six 4-fold dilutions. In routine testing, the highest well concentration was 166.7 μM, but it can be the matter of change dependent on the agent. All drug concentrations were examined in duplicates. Incubations of cells with the test compounds lasted for 72 hours at 37° C., in 5% CO2 atmosphere and 100% humidity. At the end of incubation period, the cells were assayed by using the Calcein AM. Ten microliters of the stock solution were pipetted into each well and incubated further for 1 hours. Fluorescence (FD) was measured with the Labsystem FIA Reader Fluoroscan Ascent (UK). The tumour cell survival (GI50) was calculated using the following equitation: GI50=(FDdrug exposed well/mean FDcontrol wells)×100%. The GI50 value, the drug concentration lethal to 50% of the tumour cells, was calculated from the obtained dose response curves (FIG. 3).

In assay [4] the test system is Human T-lymphoblastic leukemia cell line CEM. In words: In vitro cytotoxic activity, Calcein AM assay, CEM. It counts as cell-based. As to conditions: 72 hours. Put shortly:
as §1

In a further assay the test system is promyelocytic HL-60. In words: In vitro cytotoxic activity, Calcein AM assay, HL60. Type of assay: cell-based, human. To be noted: 72 hours, read-out: IC 50 HL60. A digest of the protocol: as §1

The structures appear in SMILES notation. Bounds are passed on as bounds.

On to `C/C(=C\CNc1ncnc2c1ncn2[C@@H]1O[C@H](CO)[C@@H](O)[C@H]1O)CO` [zeatin riboside, reference compound], for which the IC50 (in the assay with HOS; in assay [1]; in assay [2]; in the assay on mouse fibroblasts NIH3T3; in assay [3]; in assay [4]) was above 167 µM throughout. Further, the IC50 in the assay on promyelocytic HL-60 was above 167 µM.

With `COc1cccc(CNc2nc(N)nc3c2ncn3[C@@H]2O[C@H](CO)[C@@H](O)[C@H]2O)c1` [R2 = NH2,3-methoxyxybenzylamino], the IC50 was above 167 µM with HOS; above 167 µM in assay [1]; above 167 µM in assay [2]; above 167 µM with mouse fibroblasts NIH3T3; above 167 µM in assay [3]; 13.8 µM in assay [4]. Also, the IC50 with promyelocytic HL-60 is 8.9 µM.

With `COc1cccc(CNc2nc(Cl)nc3c2ncn3[C@@H]2O[C@H](CO)[C@@H](O)[C@H]2O)c1` [R2 = Cl, 3-methoxyxybenzylamino, 2-chloro-6-(3-methoxybenzylamino)purine riboside], the IC50 in the assay on HOS was above 167 µM; in assay [1] it was above 167 µM; in assay [2], above 167 µM; in the assay with mouse fibroblasts NIH3T3, above 167 µM; in assay [3], above 167 µM; in assay [4] it was 6.5 µM. Further, the IC50 in the assay with promyelocytic HL-60 is 4.1 µM.

As to `COc1ccccc1CNc1nc(Cl)nc2c1ncn2C1OC(CO)C(O)C1O` (stereo not drawn) [R2 = Cl, 2-methoxyxybenzylamino], the IC50 was 15.3 µM in the assay with HOS; 14.5 µM in assay [1]; above 167 µM in assay [2]; above 167 µM in the assay with mouse fibroblasts NIH3T3; above 167 µM in assay [3]; 2.7 µM in assay [4]. In addition, the IC50 in the assay on promyelocytic HL-60 is 1.5 µM.

Consider `OC[C@H]1O[C@@H](n2cnc3c(NCc4cccc(Cl)c4O)nc(Cl)nc32)[C@H](O)[C@@H]1O` [R2 = Cl, 2-hydroxy-3-chlorobenzylamino], for which the IC50 in the assay with HOS is above 167 µM; in assay [1], 10 µM; in assay [2] it was 14 µM; with mouse fibroblasts NIH3T3 it was above 167 µM; in assay [3], 118 µM; in assay [4] it was 0.2 µM. Further, in the assay on promyelocytic HL-60, the IC50 was 0.1 µM.

On to `COc1ccc(CNc2nc(Cl)nc3c2ncn3[C@@H]2O[C@H](CO)[C@@H](O)[C@H]2O)cc1` [R2 = Cl, 4-methoxyxybenzylamino], for which the IC50 with HOS was above 167 µM; in assay [1] it was above 167 µM; in assay [2], above 167 µM; in the assay with mouse fibroblasts NIH3T3, above 167 µM; in assay [3], 105 µM; in assay [4], above 167 µM. For the same compound, the IC50 in the assay on promyelocytic HL-60 is above 167 µM.

For the compound `COc1ccc(O)c(CNc2ncnc3c2ncn3[C@@H]2O[C@H](CO)[C@@H](O)[C@H]2O)c1` [2-hydroxy-5-methoxybenzylamino, 6-(2-hydroxy-5-methoxybenzylamino)purine riboside], the IC50 with HOS is above 167 µM; in assay [1], 15.4 µM; in assay [2], 21 µM; with mouse fibroblasts NIH3T3, above 167 µM; in assay [3], 102 µM; in assay [4], 0.2 µM. Also, in the assay on promyelocytic HL-60, the IC50 is 0.1 µM.

Turning to `Nc1nc(NCc2cccc(F)c2)c2ncn([C@@H]3O[C@H](CO)[C@@H](O)[C@H]3O)c2n1` [R2 = NH2,3-fluorobenzylamino], the IC50 is above 167 µM with HOS; 12 µM in assay [1]; 36 µM in assay [2]; above 167 µM in the assay on mouse fibroblasts NIH3T3; 21 µM in assay [3]; 21 µM in assay [4]. Moreover, the IC50 in the assay with promyelocytic HL-60 was 3.4 µM.

Consider `OC[C@H]1O[C@@H](n2cnc3c(NCc4ccccc4O)nc(Cl)nc32)[C@H](O)[C@@H]1O` [R2 = Cl, 2-hydroxybenzylamino], for which the IC50 was 2.5 µM with HOS; 75 µM in assay [1]; 10.5 µM in assay [2]; 35.1 µM in the assay with mouse fibroblasts NIH3T3; above 167 µM in assay [3]; 0.56 µM in assay [4]. Further, the IC50 with promyelocytic HL-60 is 0.38 µM.

Values taken from patent publication US8119614B2, “Substitution derivatives of N6-benzyladenosine, methods of their preparation, their use for preparation of drugs, cosmetic preparations and growth regulators, pharmaceutical preparations, cosmetic preparations and growth regulators containing these compounds” (Ustav Experimentalni Botaniky Akademie Ved Ceske Republiky, priority 2002, dated 2012).
